Data taken from patent US4062862A, “5-Benzyl-2-oxazolidone derivatives and a process for producing the same” (Nippon Chemiphar Co., Ltd., priority 1975, dated 1977).

Experiments:
[1] = test system: acetic acid-induced writhing syndrome in mice; assay: Analgetic effect, Acetic Acid-Induced Writhing Method; format: in vivo, dd Male mice; conditions: 100 mg/kg oral, 30 min before acetic acid; for Writhing syndrome (number within 20 minutes): control 52.1 ± 2.7; for Inhibitory per cent (writhing): vs control
Procedure: dd Male mice weighing 18 to 22g, one group consisting of 10 animals, were given the intraperitoneal injection of 0.6% acetic acid in a dose of 0.1ml/10g-body weight. The number of writhing syndromes occurring within 20 minutes after injection was observed. Animals were orally given the test compounds suspended in 0.2% carboxymethylcellulose solution 30 minutes before the injection of acetic acid in a dose of 100mg/kg-body weight. Inhibitory percent was estimated in comparison with a control given the 0.2% carboxymethycellulose solution only. Aminopyrine was used as active placebo.

pain threshold in mice = assay: Analgetic effect, Pressure Test (pain threshold, tail pressure); format: in vivo, dd Male mice; conditions: 100 mg/kg oral; for Pain threshold, Mean ± SE, 30 min / Pain threshold, Mean ± SE, 60 min / Pain threshold, Mean ± SE, 90 min / Pain threshold, Mean ± SE, 120 min: *p <0.05, **p <0.01, ***p <0.001
Procedure: dd Male mice weighing 18 to 22 g (pain threshold ranging within 30 to 50 mmHg), one group consisting of 10 animals, were given orally the test compounds suspended in 0.2% carboxymethylcellulose solution in a dose of 100mg/kg-body weight. Pain threshold were measured at 30, 60, 90 and 120 minutes after the administration of the test compounds while pain reaction occurring by application of pressure on tails of animals was referred to as indication. Aminopyrine was used as active placebo.

[2] = test system: carrageenan-induced edema in rats; assay: Antiinflammatory effect on carrageenan-induced edema; format: in vivo, Wistar male rats; conditions: Table 5, 200 mg/kg oral
Procedure: […] One hour after the administration of the test compounds, the hind paw was given a subcutaneous injection of 0.05ml of 0.5% carrageenan saline solution, and volume of the hind paw was measured at 1, 2, 3, 4, 5 and 6 hours after the injection of carrageenan by a volume differential meter. Inhibitory percent was calculated based on the swelling in the control. Phenybutazone was used as active placebo.

mice [3] = assay: Muscular relaxing effect, Inclined Plane Test (I.P), oral, mice; format: in vivo, dd Male mice; conditions: Mus musculus; Table 1; oral; mice; maximum response 15-180 min; Litchfield Wilcoxon
Procedure: (§1) dd Male mice weighing 18 to 22 g, one group consisting of 10 animals, were orally given the compounds (I) to (V) as indicated below suspended in 0.2% carboxymethylcellulose solution in a dose of 0.25ml/10g-body weight. Mephenesin was used as active placebo.
Mice were placed on veneer inclined at an angle of 30° and on wire-netting inclined at an angle of 60° of which one division is 5 mm square, and mice sliding down were observed as positive, in comparison with normal behavior.

mice [4] = assay: Muscular relaxing effect, Righting Reflex Test (R.r), oral, mice; format: in vivo, dd Male mice; conditions: Mus musculus; Table 1; oral; mice; maximum response 15-180 min; Litchfield Wilcoxon
Procedure: as §1

mice [5] = assay: Muscular relaxing effect, Corneal Reflex Test (C.r), oral, mice; format: in vivo, dd Male mice; conditions: Mus musculus; Table 1; oral; mice; maximum response 15-180 min; Litchfield Wilcoxon
Procedure: as §1
Corneal reflex was observed by using mandolin wire for 1/4 injection syringe.

mice [6] = assay: Muscular relaxing effect, Pinna Reflex Test (P.r), oral, mice; format: in vivo, dd Male mice; conditions: Mus musculus; Table 1; oral; mice; maximum response 15-180 min; Litchfield Wilcoxon
Procedure: as §1
Pinna reflex was observed by using mandolin wire for 1/4 injection syringe.

mice [7] = assay: Muscular relaxing effect, Traction Test (T.T), oral, mice; format: in vivo, dd Male mice; conditions: Mus musculus; Table 1; oral; mice; maximum response 15-180 min; Litchfield Wilcoxon
Procedure: as §1

mice [8] = assay: Muscular relaxing effect, Rotarod Method (R.R), oral, mice; format: in vivo, dd Male mice; conditions: Mus musculus; Table 1; oral; mice; maximum response 15-180 min; Litchfield Wilcoxon
Procedure: as §1
Mice were placed on Rotar Load (made by Natsume Seisakusho Co., Ltd.) having a diameter of 3 cm rotating at a speed of 10 rpm and falling (occurring within 3 minutes) was observed.

SMILES | Writhing syndrome (number within 20 minutes) [1] | Inhibitory per cent (writhing) [1] [per cent] | Pain threshold Increase Ratio (pain threshold in mice) | Pain threshold, Mean ± SE, 30 min (pain threshold in mice) [mmHg] | Pain threshold, Mean ± SE, 60 min (pain threshold in mice) [mmHg] | Pain threshold, Mean ± SE, 90 min (pain threshold in mice) [mmHg] | Pain threshold, Mean ± SE, 120 min (pain threshold in mice) [mmHg] | Inhibitory per cent, carrageenan-induced edema, 3 hrs. [2] [per cent] | Inhibitory per cent, carrageenan-induced edema, 6 hrs. [2] [per cent] | ED50 (mice [3]) [mg/kg] | ED50 (mice [4]) [mg/kg] | ED50 (mice [5]) [mg/kg] | ED50 (mice [6]) [mg/kg] | ED50 (mice [7]) [mg/kg] | ED50 (mice [8]) [mg/kg]
O=C1NCC(Cc2ccccc2Cl)O1 (stereo not drawn) [IV, 5-(o-chlorobenzyl)-2-oxazolidone] | 12.8 ± 3.6 | 75.4 | 1.89 | 69.8 ± 4.5 | 56.7 ± 5.3 | 53.3 ± 5.5 | 51.8 ± 6.2 | 16.8 | 15.9 | 330 | 660 | 560 | < 500 | 390 | 210
COc1ccccc1CC1CNC(=O)O1 (stereo not drawn) [III, 5-(o-methoxybenzyl)-2-oxazolidone] | 39.1 ± 6.4 | 24.9 | 1.20 | 43.7 ± 4.9 | 46.5 ± 4.2 | 42.9 ± 3.1 | 39.2 ± 3.6 | 32.7 | 23.3 | 380 | 500 | 500 | 380 | 350 | 175
O=C1NCC(Cc2ccc(Cl)cc2)O1 (stereo not drawn) [Compound V, 5-(p-chlorobenzyl)-2-oxazolidone] | 45.5 ± 5.3 | 12.8 | 1.15 | 54.6 ± 4.9 | 51.3 ± 4.3 | 48.8 ± 2.7 | 48.2 ± 1.7 | 30.6 | 22.8 | 520 | 750 | 750 | 530 | 380 | 240
CN1CC(Cc2ccccc2)OC1=O (stereo not drawn) [II, 5-benzyl-3-methyl-2-oxazolidone] | 45.9 ± 4.8 | 11.9 | 1.36 | 49.1 ± 4.5 | 49.2 ± 3.3 | 43.5 ± 4.7 | 36.3 ± 3.9 | 33.3 | 19.7 | 500 | 810 | 1100 | 520 | 500 | 340
